US10675286B2, “Heterocyclic compounds and uses thereof” (Infinity Pharmaceuticals, Inc., priority 2014, dated 2020)
Where two headings read alike, the source gives them in different places. Each block holds one molecule with its values, some of them ahead of it.

Experiments:
[1] = test system: haematological malignancies; details: cited from earlier work
[2] = biological target: PI3K-δ (Homo sapiens (Human), UniProt O00329); experiment: RAJI p110 δ assay (phospho-AKT in anti-human IgM stimulated RAJI cells); assay type: cell-based
[3] = biological target: PI3K-γ (Mus musculus (Mouse), UniProt Q9JHG7); experiment: Raw264.7 p110 γ assay (C5a-mediated phospho-AKT in RAW264.7 macrophages); assay type: cell-based
[4] = biological target: PI3K γ (Homo sapiens (Human), UniProt P48736); experiment: PI3-Kinase Promega ADP-Glo Max assay, γ isoform; assay type: biochemical
[5] = Pharmacokinetics of Compound 88 in female C57 mice, PO; assay type: in vivo, mouse; details: for tlast / AUC: female C57 mice; for AUC: mouse, plasma, read-out: AUC0_INF
Protocol: Animals were weighed daily prior to dosing. […] On subsequent dosing days, the animals' condition was noted prior to dosing; the animals were observed within 4 hours of dosing, and at the end of the day.
Samples were collected at pre-dose 0.25, 0.5, 1, 2, 4, 6 and 24 h following the first dose on day 1 and pre-dose (trough), 0.25, 0.5, 1, 2, 4, 6 and 24 h following the final dose on day 3. Animals received a single oral dose daily for 3 consecutive days. Blood was collected by retro-orbital bleeding for all time points on day 1. All other blood sampling was collected by a cardiac puncture. Blood was collected into K2EDTA tubes and placed on wet ice. Within 15 min of collection, the sample was centrifuged at 10,000 rpm at 4° C. for 10 min in a bench top centrifuge and the plasma transferred to a new microcentrifuge tube.
A similar study was carried out using Compound 88. […] Below is a table that details the results for Compound 88: […]

[6] = test system: human T cells; experiment: Concanavalin A-induced model for activation of human T cells (IFN-γ); assay type: cell-based
[7] = Oral PK in the rat LPS studies (free plasma concentration); assay type: in vivo; details: for Free Plasma Conc (nM): p.o. 0.2 mg/kg
Protocol: (§1) This study also includes assessment of the exposure to the compounds in plasma and lung tissues.
(§2) Ref C is budesonide p.o. The compound was administered p.o. and about 1 hour later, LPS was administered intra-tracheally and plasma was collected. After about 5 hours, plasma and bronchoalveolar lavage samples were collected.

[8] = test system: CXCL12-induced T cell migration; experiment: CXCL12-induced T-cell migration in CLL PBMCs (transwell); assay type: cell-based; details: Homo sapiens
Protocol: Specifically, the material used were media (RPMI+0.5% Fetal Bovine Serum+Pen/Strep), total CLL PBMCs (AllCells), CoStar 24-transwell plates ([…]) #3421, BD Cytofix Fixation Buffer (#554655), BD FBS Stain Buffer (BD Biosciences, 554656), Deep 96-well plate (Axygen, P-2ML-SQ-C), rhCXCL12 (R&D, 350-NS-050), CD-19 APC Cy7 (BD #348794 1:20), CD3-PerCPCy5.5 (BD #560835, 1:20), CD5-PE (Biolegend #300608, 1:5), CD4-FITC (BD #561842, 1:20), and CD8-APC (BD #561953, 1:20).
Total CLL human PBMCs were preincubated with Compound AA or BB in media for 45 minutes at 37° C. […] After the 45 minutes of compound preincubation, 500-750K CLL PBMCs were placed in the upper chamber of the transwell insert in a total volume of 100 uL. The cells were allowed to migrate for 2-4 hours at 37° C. The inserts were removed, and 550 uL media from lower chamber were transferred into a deep 96-well plate. The cells were spun at 1280 rpm for 5 minutes and flick media. The cells were resuspended in 400 uL BD Cytofixation buffer and incubated at RT for 10 minutes. 1 mL BD FBS stain buffer was added. The cells were spun at 1280 rpm and fixation buffer was disposed. The cells were resuspended in 100 uL of CD3,4,8,5,19 antibody cocktail made up in BD FBS stain buffer, which was then incubated at room temperature in the dark for 30-60 minutes. 1 mL BD FBS stain buffer was added to each well, which was then spun and flicked. The cells were resuspended in 150 uL FBS stain buffer and transferred to FACS tubes already containing 150 uL FBS stain buffer. Each sample was read on the FACS for 25 seconds. Gate on CD3, 4, 8 and CD19/5 subpopulations individually and calculate average migration index from triplicate samples. See e.g., Borge et al., haematologica 2010, 95(5): 768-775; de Rooij et al., Blood 2012, 119: 2590-2594.

[9] = test system: LPS-induced neutrophil influx into BALF; experiment: LPS-induced neutrophilia in rats, oral administration; assay type: in vivo; details: rat, p.o., 4 hours post-LPS challenge; dose dependent
Protocol: as §1, §2

[10] = test system: T cell activation (IFN-γ in response to ConA); experiment: T cell activation in human whole blood (Con-A, IFN-γ readout); assay type: cell-based; details: 24 hours, read-out: IC50, T cell activation as measured by inhibition of IFN-γ
Protocol: The purpose of this study is to evaluate the effect of various antigens (Con-A) in T cell activation in Human Whole Blood vs. 1:1 Diluted Blood using test compounds at 24 hour time-point.
T-cell Activation Media includes RPMI-1000 ml, MEM NEAA-10 ml, Sodium Pyruvate (100 mM)-10 ml, Pen Strep-10 ml, 2-Mercaptoethanol-1 ml, and FBS-100 ml. 100 ul of whole blood were plated in 96 well plate. Used only the 60 inside wells and filled the outside with media or PBS. Diluted human whole blood with 5% Serum RPMI 1640 1:1 and plate 100 ul in 96 well plate. Used only the 60 inside wells and filled the outside with media or PBS.
The compound was diluted using DMSO (Sigma hybridmax). For 1000 nM highest concentration starting from a 10 mM stock, added 300 ul of DMSO into deep well plates. To the highest concentration add 10 ul of 10 mM compound stock.
A media plate was prepared from DMSO plate by taking 100 ul and go into 900 ul media in new deep well plate, taping plate, and putting on mixer for 5 minutes.
The rested cell plates were removed from incubator. Added 12 uL of diluted compound from media plate (final DMSO is 1%), and incubated for 45 minutes.
Con-A was prepared as follows: 200 ul stock into 1 ml Media, 100 ul of that into 1 ml Media, 100 ul of that into 1 ml Media. […] This was analyzed after 24 Hours.
10× stock in media, added 12 ul per well. […] Analyzed with multiplex elisa from MSD. […]

[11] = test system: IL-8 induced neutrophil migration; experiment: IL-8 driven murine air pouch model; assay type: in vivo; details: mouse; Compound BB 0.1, 0.3, 1, 3 mg/kg; Compound AA 10, 25, about 50 mg/kg; vs vehicle
Description: IL-8 chemoattracts and activates neutrophils.

[12] = test system: CXCL12 induced p-AKT in bone marrow derived macrophages; experiment: CXCL12-induced p-AKT induction assay in differentiated, polarized macrophages; assay type: cell-based, mouse
Description: Long bones from young C57B6 mice were harvested and bone marrow was extruded by gentle lavage of the bone marrow cavities with a 28 gauge needle. Red blood cells were removed using red blood cell lysis buffer (Sigma). Bone marrow cells were differentiated to macrophages using MCSF for 6 days (RPMI and 20% FCS) with one media change (with removal of all non-adherent cells) at day 3. Macrophages were polarized into M0 (MCSF), M1 (MCSF, IFNγ, and LPS for 1 day), or M2 (MCSF, IL4 for 2 days).
Polarized macrophages were lifted with Acutase, and plated at 0.5M cells per well (0.5 ml) in a deep well (2 ml) non adherant plate in polarization media for 1 hour. […] CXCL12 was added, and the cells were mixed on a plate shaker for 2 minutes. 1 ml of 37 degree FACS Lyse/fix buffer (BD bioscience) was added and the plate was mixed for 1 minute. The plates were spun and decanted and frozen at −80° C. Phospho AKT staining with anti Phospho AKT 473 PERCP labeled (Cell Signaling Technologies) was performed and measured by flow cytometry. Total cell MFI was used to calculate the effect of tested compound on CXCL12 induction of phospho AKT.

[13] = test system: LLC tumor brei; experiment: LLC tumor brei model, Compound BB with or without cyclophosphamide; assay type: in vivo, mouse; details: Compound BB 15 mg/kg QD PO, cyclophosphamide 50 mg/kg EOD IP

PI3K-γ, sequence (Q9JHG7 whole entry, canonical isoform): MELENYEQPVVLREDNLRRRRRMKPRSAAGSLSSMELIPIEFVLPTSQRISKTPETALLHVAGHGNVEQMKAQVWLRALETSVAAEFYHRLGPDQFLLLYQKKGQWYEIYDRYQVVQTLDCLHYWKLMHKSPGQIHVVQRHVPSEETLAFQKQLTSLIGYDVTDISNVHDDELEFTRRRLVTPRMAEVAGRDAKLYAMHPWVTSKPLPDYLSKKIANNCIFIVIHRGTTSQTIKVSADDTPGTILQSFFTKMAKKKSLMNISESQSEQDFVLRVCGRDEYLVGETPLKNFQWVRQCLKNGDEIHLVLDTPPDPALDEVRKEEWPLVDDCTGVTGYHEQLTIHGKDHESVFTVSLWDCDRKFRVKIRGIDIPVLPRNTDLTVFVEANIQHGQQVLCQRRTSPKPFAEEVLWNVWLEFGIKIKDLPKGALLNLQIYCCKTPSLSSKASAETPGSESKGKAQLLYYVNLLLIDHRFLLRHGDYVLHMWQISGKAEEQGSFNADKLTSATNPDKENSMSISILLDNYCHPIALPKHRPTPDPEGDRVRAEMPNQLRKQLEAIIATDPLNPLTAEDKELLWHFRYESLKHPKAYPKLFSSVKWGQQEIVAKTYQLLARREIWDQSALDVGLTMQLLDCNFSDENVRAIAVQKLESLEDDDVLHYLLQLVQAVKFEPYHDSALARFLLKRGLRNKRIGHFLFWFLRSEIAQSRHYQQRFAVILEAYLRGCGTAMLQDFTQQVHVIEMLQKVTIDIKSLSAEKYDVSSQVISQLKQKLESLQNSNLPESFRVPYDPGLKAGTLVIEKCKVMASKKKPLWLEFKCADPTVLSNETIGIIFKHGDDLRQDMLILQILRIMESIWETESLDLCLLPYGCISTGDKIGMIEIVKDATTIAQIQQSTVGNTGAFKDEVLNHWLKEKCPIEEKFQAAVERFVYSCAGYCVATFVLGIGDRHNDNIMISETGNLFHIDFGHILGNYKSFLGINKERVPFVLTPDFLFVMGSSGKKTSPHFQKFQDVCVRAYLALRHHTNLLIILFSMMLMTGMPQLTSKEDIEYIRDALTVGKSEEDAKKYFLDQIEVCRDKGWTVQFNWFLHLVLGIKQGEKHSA
PI3K γ, sequence (P48736 whole entry, canonical isoform): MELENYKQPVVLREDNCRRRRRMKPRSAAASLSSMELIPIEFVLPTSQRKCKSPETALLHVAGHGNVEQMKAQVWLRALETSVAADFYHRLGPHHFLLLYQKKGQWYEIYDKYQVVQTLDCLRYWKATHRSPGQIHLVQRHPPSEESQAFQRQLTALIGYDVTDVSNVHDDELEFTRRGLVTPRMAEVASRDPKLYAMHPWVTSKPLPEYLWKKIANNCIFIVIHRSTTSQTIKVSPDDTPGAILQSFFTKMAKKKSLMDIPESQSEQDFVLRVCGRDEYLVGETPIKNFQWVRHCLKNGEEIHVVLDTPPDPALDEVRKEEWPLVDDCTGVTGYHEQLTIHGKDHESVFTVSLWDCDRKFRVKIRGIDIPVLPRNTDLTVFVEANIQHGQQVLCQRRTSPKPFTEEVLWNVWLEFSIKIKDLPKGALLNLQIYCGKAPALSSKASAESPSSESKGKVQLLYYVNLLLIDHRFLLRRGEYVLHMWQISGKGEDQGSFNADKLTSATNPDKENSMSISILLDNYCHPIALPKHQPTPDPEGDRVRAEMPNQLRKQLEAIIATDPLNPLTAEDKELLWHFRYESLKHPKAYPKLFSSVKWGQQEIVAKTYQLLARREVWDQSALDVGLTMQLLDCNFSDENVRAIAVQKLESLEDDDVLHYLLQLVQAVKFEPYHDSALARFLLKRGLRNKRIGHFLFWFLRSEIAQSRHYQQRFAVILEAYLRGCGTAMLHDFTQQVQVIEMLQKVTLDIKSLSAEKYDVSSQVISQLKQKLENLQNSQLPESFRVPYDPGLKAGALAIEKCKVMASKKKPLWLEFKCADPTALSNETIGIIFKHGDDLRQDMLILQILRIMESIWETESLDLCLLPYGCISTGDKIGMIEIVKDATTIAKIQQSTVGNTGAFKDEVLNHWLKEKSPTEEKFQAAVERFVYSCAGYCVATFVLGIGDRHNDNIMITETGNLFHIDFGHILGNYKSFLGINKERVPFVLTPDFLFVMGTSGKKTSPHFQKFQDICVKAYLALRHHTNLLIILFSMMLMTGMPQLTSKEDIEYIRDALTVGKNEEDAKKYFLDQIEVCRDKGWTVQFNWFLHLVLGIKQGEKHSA
PI3K-δ, sequence (O00329 whole entry): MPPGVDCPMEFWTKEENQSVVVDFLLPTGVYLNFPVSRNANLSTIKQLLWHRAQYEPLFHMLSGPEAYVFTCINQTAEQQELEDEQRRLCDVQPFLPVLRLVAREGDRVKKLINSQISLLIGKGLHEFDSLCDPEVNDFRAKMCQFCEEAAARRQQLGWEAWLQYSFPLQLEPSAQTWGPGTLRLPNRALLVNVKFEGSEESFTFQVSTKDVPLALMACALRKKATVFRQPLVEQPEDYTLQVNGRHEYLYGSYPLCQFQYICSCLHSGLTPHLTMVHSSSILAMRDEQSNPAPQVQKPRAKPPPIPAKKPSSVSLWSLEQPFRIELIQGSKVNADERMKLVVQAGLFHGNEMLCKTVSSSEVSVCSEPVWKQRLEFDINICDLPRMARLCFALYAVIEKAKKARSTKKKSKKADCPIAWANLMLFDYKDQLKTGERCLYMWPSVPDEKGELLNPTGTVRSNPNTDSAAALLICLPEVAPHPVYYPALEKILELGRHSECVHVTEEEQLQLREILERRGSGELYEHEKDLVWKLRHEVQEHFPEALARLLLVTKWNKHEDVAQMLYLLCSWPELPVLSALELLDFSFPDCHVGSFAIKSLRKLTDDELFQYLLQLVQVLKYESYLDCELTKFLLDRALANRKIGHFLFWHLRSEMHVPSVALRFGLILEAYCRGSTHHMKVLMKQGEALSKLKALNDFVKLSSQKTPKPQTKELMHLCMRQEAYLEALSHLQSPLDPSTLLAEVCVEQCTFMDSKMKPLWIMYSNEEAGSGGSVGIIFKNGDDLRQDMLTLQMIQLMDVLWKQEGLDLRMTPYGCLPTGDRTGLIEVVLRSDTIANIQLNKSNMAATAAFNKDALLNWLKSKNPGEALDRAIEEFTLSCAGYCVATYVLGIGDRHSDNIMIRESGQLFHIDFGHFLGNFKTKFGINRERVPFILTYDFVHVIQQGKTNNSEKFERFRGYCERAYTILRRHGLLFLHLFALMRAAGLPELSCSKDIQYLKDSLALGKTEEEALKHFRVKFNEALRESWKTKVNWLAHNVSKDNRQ
PI3K-δ, sequence (P27986 whole entry partner): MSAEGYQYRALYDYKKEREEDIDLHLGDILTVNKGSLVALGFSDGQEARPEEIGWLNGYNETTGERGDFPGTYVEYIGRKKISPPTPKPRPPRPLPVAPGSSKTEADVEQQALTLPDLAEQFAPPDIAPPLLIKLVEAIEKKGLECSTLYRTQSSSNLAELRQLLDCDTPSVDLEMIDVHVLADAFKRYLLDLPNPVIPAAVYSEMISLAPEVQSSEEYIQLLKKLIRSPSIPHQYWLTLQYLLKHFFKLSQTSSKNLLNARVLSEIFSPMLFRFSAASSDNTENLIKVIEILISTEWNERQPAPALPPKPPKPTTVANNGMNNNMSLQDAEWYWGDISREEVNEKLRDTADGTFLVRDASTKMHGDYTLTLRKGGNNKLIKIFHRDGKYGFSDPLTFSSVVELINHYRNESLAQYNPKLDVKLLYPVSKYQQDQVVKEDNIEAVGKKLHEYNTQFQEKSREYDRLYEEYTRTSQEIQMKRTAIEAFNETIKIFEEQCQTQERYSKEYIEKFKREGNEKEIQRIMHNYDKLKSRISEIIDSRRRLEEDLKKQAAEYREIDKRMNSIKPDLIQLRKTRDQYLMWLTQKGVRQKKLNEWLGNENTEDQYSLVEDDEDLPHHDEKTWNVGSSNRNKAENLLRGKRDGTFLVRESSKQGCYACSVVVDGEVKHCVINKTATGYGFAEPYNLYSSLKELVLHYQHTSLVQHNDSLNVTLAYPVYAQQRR

Compound: CC[C@H](Nc1ncnc2[nH]cnc12)c1nc2cccc(F)c2c(=O)n1-c1ccccc1 [CAL-101]
clinical activity in CLL ([1]; phase 1 trial, patients with poor prognostic characteristics): showed activity
clinical activity in mantle cell lymphoma and refractory non Hodgkin's lymphoma ([1]; single agent): active

IC50 [2]: 100 to 500 nM
RAJI δ/Raw264.7 γ IC50 (selectivity) [3]: X (X = 10 to <50)
IC50 ([3]; phospho-AKT): 1 to 50 nM
PI3K δ/PI3K γ IC50 (selectivity) [4]: Y (Y = 50 to <850)
Compound: C[C@H](NC(=O)c1c(N)nn2cccnc12)c1cc2cccc(C#Cc3ccn[nH]3)c2c(=O)n1-c1ccccc1 [Compound 43]

tlast ([5]; 2 mg/kg PO NMP): 8 h
tlast ([5]; 7.5 mg/kg PO NMP): 24 h
tlast ([5]; 15 mg/kg PO NMP): 24 h
Stability in serum ([5]; female C57 mice, 2, 7.5 or 15 mg/kg PO): good stability in serum
AUC ([5]; 7.5 mg/kg PO NMP): 20700 ng·h/mL
AUC ([5]; 15 mg/kg PO NMP): 81200 ng·h/mL
Compound: Cc1c(C#Cc2cccc3nc([C@H](C)NC(=O)c4c(N)nn5cccnc45)n(-c4ccccc4)c(=O)c23)cnn1C [Compound 88, (S)-2-amino-N-(1-(5-((1,5-dimethyl-1H-pyrazol-4-yl)ethynyl)-4-oxo-3-phenyl-3,4-dihydroquinazolin-2-yl)ethyl)pyrazolo[1,5-a]pyrimidine-3-carboxamide]

Compound: CC(C)n1c([C@H](C)Nc2ncnc(N)c2C#N)cc2cccc(-c3ccc(=O)n(C)c3)c2c1=O [Compound AA, reference compound]
inhibition of IFN-γ [6]: highly selective inhibitor
Free plasma levels relative to IC90 of the target isoform ([7]; highest dose levels, gamma for Compound BB, delta for Compound AA): equal or greater than the IC90
Free Plasma Conc (nM) ([7]; 1.5 h (time of LPS challenge)): BLQ
Free Plasma Conc (nM) ([7]; […] (about 4 hours post LPS challenge)): BLQ
EC50 ([8]; T-cell subset CD3+, read-out: EC50 (nM), CXCL12 induced T-cell migration): 630 ± 71 nM
EC50 ([8]; T-cell subset CD4+, read-out: EC50 (nM), CXCL12 induced T-cell migration): 726 ± 230 nM
EC50 ([8]; T-cell subset CD8+, read-out: EC50 (nM), CXCL12 induced T-cell migration): 423 ± 290 nM
EC50 ([8]; read-out: EC50, inhibition of CXCL12-induced CD3+ T cell migration (FIG. 8)): 694 nM
Neutrophil in bronchoalveolar lavage fluid (BALF) [9]: reduced neutrophil in bronchoalveolar lavage fluid (BALF)
IC50 [10]: 3 nM
IL-8 induced neutrophil migration into air pouch [11]: does not inhibit IL-8 induced neutrophil migration
IC50, CXCL12 induced p-AKT ([12]; differentiated and M1 polarized macrophage): did not significantly inhibit
IC50, CXCL12 induced p-AKT ([12]; differentiated and M2 polarized macrophage): did not significantly inhibit

Compound: O=P1(N(CCCl)CCCl)NCCCO1 (centres unmarked) [cyclophosphamide, reference compound]
Tumor growth (FIG. 48) [13]: reduced tumor growth by about the same amount
